Test results published in patent publication US20240132463A1, “SUBSTITUTED N-(2-(2,6-DIOXOPIPERIDIN-3-YL)-1,3-DIOXOISOINDOLIN-5-YL)ARYLSULFONAMIDE ANALOGS AS MODULATORS OF CEREBLON PROTEIN” (ST. JUDE CHILDREN'S RESEARCH HOSPITAL, INC., priority 2020, published 2024).

Tests used:
[1] = Pharmacokinetics (PK) study in CD1 mice; type: in vivo, mouse
Protocol: Healthy female CD1 mice (8-12 weeks old) weighing between 20 to 30 g were procured from Global, India. Three mice were housed in each cage. Temperature and humidity were maintained at 22±3° C. and 30-70%, respectively and illumination was controlled to give a sequence of 12 hr light and 12 hr dark cycle. Temperature and humidity were recorded by auto-controlled data logger system. All the animals were provided laboratory rodent diet (Envigo Research private Ltd, Hyderabad). Reverse osmosis water treated with ultraviolet light was provided ad libitum. Formulation vehicle: 5% v/v NMP: 5% v/v Solute HS-15 and 90% v/v normal saline. […] The dosing volume for intravenous was 5 mL/kg and for oral administration 10 mL/kg. Blood samples (approximately 60 μL) were collected under light isoflurane anesthesia (Surgivet®) from retro orbital plexus from a set of three mice at 0.08 (for IV only), 0.25, 0.5, 1, 2, 4, 6 (for PO only), 8, 12 and 24 hr. Immediately after blood collection, plasma was harvested by centrifugation at 4000 rpm, 10 min at […] and samples were stored at −70±10° C. until bioanalysis. […] Non-Compartmental-Analysis tool of Phoenix WinNonlin® (Version 8.0) was used to assess the pharmacokinetic parameters. Peak plasma concentration (Cmax) and time for the peak plasma concentration (Tmax) were the observed values. The areas under the concentration time curve (AUClast and AUCinf) were calculated by linear trapezoidal rule. The terminal elimination rate constant, ke was determined by regression analysis of the linear terminal portion of the log plasma concentration-time curve. Clearance was estimated as Dose/AUCinf and Vss as CL*MRT. The oral bioavailability was calculated as ratio of dose normalized AUC of oral and intravenous group multiplied by 100.

[2] = Plasma protein binding assay (mouse); type: in vitro ADME
Protocol: Stock solutions were prepared at 10 mM in DMSO. Dulbecco's phosphate buffered saline (DPBS; pH 7.4) was obtained from Invitrogen (Carlsbad, CA). Single-Use RED (rapid equilibrium dialysis) device was obtained from Thermo scientific (Rockford, IL). Human and mouse plasma were obtained from GeneTex (Irvine, CA). Sample preparation for plasma protein binding was modified from Waters' method (see Waters, N.J., et al., J Pharm Sci. 2008 October; 97(10):4586-95). The Teflon base plate with the RED inserts was used without any pre-conditioning the membrane inserts. Plasma was thawed and centrifuged at 1000 rpm for 10 min to remove any particulates. Each compound was prepared at 10 μM in human or mouse plasma. Spiked plasma solutions (300 μL) were placed into the sample chamber (indicated by the red ring) and 500 μL of DPBS into the adjacent chamber. The plate was sealed and incubated at 37° C. on an orbital shaker (100 rpm) for 4 hours. After incubation, the seal was removed from the RED plate and the volume of the insert confirmed-little to no volume change occurred. […] The test compound concentrations were quantified in both buffer and plasma chambers via peak areas relative to the internal standard. The percentage of the test compound bound to plasma was calculated on following equations: % Free=(Concentration buffer chamber/concentration plasma chamber)×100% and % Bound=100%-% Free.

MDCKII-MDR1 cells = assay: MDCKII-MDR1 permeability assay; type: in vitro ADME; settings: permeability in MDCK-MDR1 cells
Protocol: High throughput […]1 permeability was performed in the Transwell® 0.4 μm polycarbonate membrane 96-well system with modified methods (Refs. 38-39). […]1 cells were maintained at 37° C. in a humidified incubator with an atmosphere of 5% CO2. The cells were cultured in 75 cm^2 flasks with Dulbecco's Modified Eagle's Medium (DMEM) containing 10% fetal bovine serum (FBS), 1% non-essential amino acids (NEAA), 100 units/ml of penicillin, and 100 μg/ml of streptomycin. The […]1 cells were seeded onto inserts at a density of 2×10^4 and 1×10^4 cells/insert separately. The medium in the wells was exchanged each other day, and the trans epithelial electrical resistance (TEER) value was measured using an epithelial volt-ohm meter (Millipore, Billerica, Massachusetts). […] For transport experiments, each cultured monolayer on the 96-well plate was washed twice with a transport buffer (HBSS/25 mM HEPES, pH 7.4). The permeability assay was initiated by the addition of each compound solution (10 μmol/L) into inserts (apical side, A) or receivers (basolateral side, B). The MDCKII-MDR1 cell monolayers were incubated for 1 hour at 37° C. Fractions were collected from receivers (if apical to basal permeability) or inserts (if basal to apical permeability), and concentrations were assessed by UPLC/MS (Waters; Milford, MA). All compounds were tested in triplicates. The A→B (or B→A) apparent permeability coefficients (Papp) of each compound were calculated using the equation, Papp=dQ/dt×1/AC0, where dQ/dt equals the flux of a drug across the monolayer, A equals the total insert well surface area, and C0 is the initial concentration of substrate in the donor compartment. The efflux ratio was determined by dividing the Papp in the B-A direction by the Papp in the A-B direction.

caspase 3/7 = assay: Caspase 3/7 activity assay; type: cell-based, human; settings: MV4-11 cells, Caspase-Glo, 4, 8 and 24 hours, 10 and 100 nM
MV4-11 cells = assay: MV-4-11 cell viability assay; type: cell-based, human; settings: 72 hours, Cell Titer Glo
Protocol: MV-4-11 cell line was purchased from the American Type Culture Collection (ATCC, Manassas, VA). The cells were cultured according to recommendations in IMDM cell culture media (ATCC). Exponentially growing MV-4-11 cells were plated at 1,000 cells per well in Corning 8804BC white 384-well assay plates and incubated overnight at 37° C. in a humidified 5% CO2 incubator. Compounds were transferred to the assay plate from a dose-response plate using a Pintool on a Biomek FXP Laboratory Automation Workstation (Beckman Coulter). Cytotoxicity was determined following 72 hours of incubation using Promega Cell Titer Glo reagent according to the manufacturer's recommendation. Luminescence was measured on an Envision plate reader (Perkin-Elmer).
Compounds were screened in human cancer cell lines and each cell line was cultured in the complete medium recommended by the vendor and seeded in Corning 8804BC white 384-well assay plates at density of 1,000, 1,000, 1,000, 1,500 and 7,500 cells per well, for MV4-11, HD-MB03, MB004, MB002 and MHH-CALL4 cells respectively. After overnight incubation at 37° C. in a humidified 5% CO2 incubator, cells were treated with compounds in dose-response format using a Pintool on a Biomek FXP Laboratory Automation Workstation (Beckman Coulter). […] After 72 h incubation, cell proliferation was assessed using Cell Titer-Glo (CTG) luminescent cell viability assay (Promega) according to the manufacturer's instruction. Luminescence signal was measured using an Envision plate reader (Perkin-Elmer).

O=C1CCC(N2C(=O)c3ccc(NS(=O)(=O)c4ccccc4OC(F)(F)F)cc3C2=O)C(=O)N1 (centres unmarked) [Compound 1, N-(2-(2,6-dioxopiperidin-3-yl)-1,3-dioxoisoindolin-5-yl)-2-(trifluoromethoxy)benzenesulfonamide]
clearance ([1]; 3 mg/kg IV): 0.46 mL/min/kg
volume of distribution ([1]; 3 mg/kg IV): 0.15 L/kg
oral bioavailability ([1]; 10 mg/kg PO vs 3 mg/kg IV): 84%
half-life ([1]; female, CD1, mouse, plasma, 3 mg/kg IV, read-out: terminal elimination half-life (t1/2) (converted)): 3.4 h
Plasma protein binding [2]: 99.3%
Papp (MDCKII-MDR1 cells): 2.3 ×10⁻⁶ cm/s
caspase activation (caspase 3/7): measurable at 8 hours
MV4-11 EC50 (MV4-11 cells): among the most potent
